This test addresses T1, recombinant human DPPI (Cathepsin C) (Homo sapiens, UniProt P53634).
T1 construct: purchased Prozymex
Kind of test: Inhibition of Human DPPI (Cathepsin C). The following applies: substrate Gly-Arg-AMC 50 μM, MES buffer pH 6.0, 30 min at room temperature, fluorescence readout. The format is biochemical. The text has this: Inhibition of Human DPPI (Cathepsin C)
Materials: Microtiterplates (Optiplate-384 F) were purchased from PerkinElmer (Prod.No. 10 6007270). The substrate Gly-Arg-AMC was from Biotrend (Prod.-No. 808756 Custom peptide).
Bovine serum albumin (BSA; Prod.No. A3059) and Dithiothreitol (DTT; Prod.No D0632) were from Sigma. TagZyme buffer was from Riedel-de-Haen (Prod.-No. 04269), NaCl was from Merck (Prod.-No. 1.06404.1000) and morpholinoethane sulfonic acid (MES), was from Serva (Prod.-No.
29834). The DPP1 inhibitor Gly-Phe-DMK was purchased from MP Biomedicals 15 (Prod.-No. 03DK00625). The recombinant human DPPI was purchased from Prozymex. All other materials were of highest grade commercially available.
The following buffers were used: MES buffer: 25 mM MES, 50 mM NaCl, 5 mM DTT, adjusted to pH 6.0, containing 0.1% BSA; TAGZyme Buffer: 20 mM NaH2PO4, 150 mM NaCl adjusted to pH […]
Assay conditions: The recombinant human DPPI was diluted in TAGZyme buffer to 1 U/ml (38.1 μg/ml, respectively), and then activated by mixing in a 1:2 ratio with a Cysteamine aqueous solution (2 mM) and incubating for 5 min at room temperature.
Five uL test compound (final concentration 0.1 nM to 100 μM) in aqua bidest 5 (containing 4% DMSO, final DMSO concentration 1%) were mixed with 10 μL of DPPI in MES buffer (final concentration 0.0125 ng/μL) and incubated for 10 min. Then, 5 μL of substrate in MES buffer (final concentration 50 μM) were added. The microtiter plates were then incubated at room temperature for 30 min. Then, the reaction was stopped by adding 10 μL of Gly-Phe-DMK in 10 MES-buffer (final concentration 1 μM). The fluorescence in the wells was determined using a Molecular Devices SpectraMax M5 Fluorescence Reader (Ex 360 nm, Em 460 nm) or an Envision Fluorescence Reader (Ex 355 nm, Em 460 nm).
Each assay microtiter plate contained wells with vehicle controls (1% DMSO in bidest+0.075% 15 BSA) as reference for non-inhibited enzyme activity (100% Ctl; high values) and wells with inhibitor (Gly-Phe-DMK, in bidest+1% DMSO+0.075% BSA, final concentration 1 μM) as controls for background fluorescence (0% Ctl; low values).
The analysis of the data was performed by calculating the percentage of fluorescence in the presence of test compound in comparison to the fluorescence of the vehicle control after 20 subtracting the background fluorescence using the following formula: (RFU(sample)−RFU(background))*100/(RFU(control)−RFU(background)) […]
Data from these calculations were used to generate IC50 values for inhibition of DPPI, respectively.

Usually IC50 stands for the point on the concentration scale where inhibition reaches its midpoint.

T1 sequence (P53634 231-394 limits assumed): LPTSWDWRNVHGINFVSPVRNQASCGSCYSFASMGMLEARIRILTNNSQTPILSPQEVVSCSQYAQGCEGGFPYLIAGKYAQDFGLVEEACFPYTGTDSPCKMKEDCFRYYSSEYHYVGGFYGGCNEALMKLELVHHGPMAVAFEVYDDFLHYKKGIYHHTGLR
T1 sequence (P53634 395-463 limits assumed): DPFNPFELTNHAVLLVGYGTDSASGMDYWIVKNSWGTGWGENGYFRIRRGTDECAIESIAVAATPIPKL
T1 sequence (P53634 25-143 limits assumed): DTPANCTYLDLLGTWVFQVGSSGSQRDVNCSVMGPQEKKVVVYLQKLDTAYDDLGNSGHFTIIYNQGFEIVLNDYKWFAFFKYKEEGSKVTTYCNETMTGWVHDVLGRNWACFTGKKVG

Take `N#C[C@H](Cc1ccc(N2CCN(C3COC3)CC2)cc1F)NC(=O)[C@H]1N[C@@H]2CC[C@H]1C2` [Example 1, (1S,2S,4R)—N-[(1S)-1-cyano-2-[2-fluoro-4-[4-(oxetan-3-yl)piperazin-1-yl]phenyl]ethyl]-3-azabicyclo[2.2.1]heptane-2-carboxamide]: the IC50 was 11.7 nM. In the case of `N#C[C@H](Cc1ccc(C2CCN(C3COC3)C2)cc1F)NC(=O)[C@H]1N[C@@H]2CC[C@H]1C2` (stereo partly drawn) [Example 12] it was 29.4 nM; in that of `N#C[C@H](Cc1ccc(C2CC3CN(C4COC4)CC3C2)cc1F)NC(=O)[C@H]1N[C@@H]2CC[C@H]1C2` (stereo partly drawn) [Example 13], 79.7 nM; in that of `N#C[C@H](Cc1ccc(N2C3CCC2CN(C2COC2)C3)cc1F)NC(=O)[C@H]1N[C@@H]2CC[C@H]1C2` [Example 2], 14.4 nM. `N#C[C@H](Cc1ccc(N2CCC3CN(C4COC4)CC32)cc1F)NC(=O)[C@H]1N[C@@H]2CC[C@H]1C2` (stereo partly drawn) [Example 7]: the IC50 came to 9.9 nM. In the case of `N#C[C@H](Cc1ccc(N2CC3(C2)CN(C2COC2)C3)cc1F)NC(=O)[C@H]1N[C@@H]2CC[C@H]1C2` [Example 3] it was 21.6 nM; in that of `N#C[C@H](Cc1ccc(N2CC3CCN(C4COC4)C3C2)cc1F)NC(=O)[C@H]1N[C@@H]2CC[C@H]1C2` (stereo partly drawn) [Example 6], 13.5 nM. Consider `N#C[C@H](Cc1ccc(N2CC3CN(C4COC4)CC3C2)cc1F)NC(=O)[C@H]1N[C@@H]2CC[C@H]1C2` (stereo partly drawn) [Example 5, (1S,2S,4R)—N-[(1S)-1-cyano-2-[2-fluoro-4-[5-(oxetan-3-yl)-1,3,3a,4,6,6a-hexahydropyrrolo[3,4-c]pyrrol-2-yl]phenyl]ethyl]-3-azabicyclo[2.2.1]heptane-2-carboxamide], for which the IC50 was 16.5 nM. In the case of `N#C[C@H](Cc1ccc(C2CCCN(C3COC3)C2)cc1F)NC(=O)[C@H]1N[C@@H]2CC[C@H]1C2` (stereo partly drawn) [Example 11] it was 52.7 nM. The value for `N#C[C@H](Cc1ccc(C2CCN(C3COC3)CC2)cc1F)NC(=O)[C@H]1N[C@@H]2CC[C@H]1C2` [Example 10, (1S,2S,4R)—N-[(1S)-1-cyano-2-[2-fluoro-4-[1-(oxetan-3-yl)-4-piperidyl]phenyl]ethyl]-3-azabicyclo[2.2.1]heptane-2-carboxamide] was 60.1 nM; that for `N#C[C@H](Cc1ccc(C2CC3CN(C4COC4)CC3C2)cc1F)NC(=O)[C@H]1N[C@@H]2CC[C@H]1C2` (stereo partly drawn) [Example 14] was 29.3 nM; that for `N#C[C@H](Cc1ccc(C2=CCN(C3COC3)CC2)cc1F)NC(=O)[C@H]1N[C@@H]2CC[C@H]1C2` [Example 4, (1S,2S,4R)—N-[(1S)-1-cyano-2-[2-fluoro-4-[1-(oxetan-3-yl)-3,6-dihydro-2H-pyridin-4-yl]phenyl]ethyl]-3-azabicyclo[2.2.1]heptane-2-carboxamide] was 5.6 nM. `N#C[C@H](Cc1ccc(N2CCN(C3COC3)CC2)cc1F)NC(=O)C12CCC(CC1)CN2` [Example 15, N-[(1S)-1-cyano-2-[2-fluoro-4-[4-(oxetan-3-yl)piperazin-1-yl]phenyl]ethyl]-2-azabicyclo[2.2.2]octane-1-carboxamide]: the IC50 amounted to 66.5 nM.

On to `N#C[C@H](Cc1ccc(N2CCC3C2CCN3C2COC2)cc1F)NC(=O)[C@H]1N[C@@H]2CC[C@H]1C2` (stereo partly drawn) [Example 9], for which the IC50 came out at 17.6 nM. In the case of `N#C[C@H](Cc1ccc(N2CCC3C2CCN3C2COC2)cc1F)NC(=O)[C@H]1N[C@@H]2CC[C@H]1C2` (stereo partly drawn) [Example 8] it was 35.5 nM.
